Where two headings read alike, the source gives them in different places.
Key:
cyclin K [1] = assay: Immunoblot of cyclin K levels in MDA-MB-231 cells; format: cell-based, human; details: SR-4835 500 nM, SR-4784 1-2 μM 2 hours, SR-4784-PAP 2 μM 2 hours
Procedure: THZ531 was used as a negative control as it is known to make a covalent bond with Cys1039 in a C-terminal extension of the kinase domain, thereby preventing this helix-loop-helix (HLH)-like fold from binding in a cleft between the DDB1 BPA and BPC domains (Fig. 1B, right panels). […] An immunofluorescence-based assay developed for visualizing loss of nuclear cyclin K also confirmed the above observations (Fig. 1H and Fig. S1, ESI ^†).
Total cell lysates were prepared using RIPA lysis buffer (Millipore Sigma) supplemented with protease and phosphatase inhibitors (Roche). Protein concentrations were estimated using the BCA protein assay kit (Pierce, Thermo Fisher Scientific). Equal amounts of proteins were separated using NuPAGE 4–12% Bis-Tris gels (Thermo Fisher Scientific). For CLICK chemistry pulldown experiments, proteins in the eluates were resolved using 3–8% Tris–acetate gels (Thermo Fisher Scientific). Proteins were transferred to nitrocellulose membranes using NuPAGE transfer buffer (Thermo Fisher Scientific). Membranes were blocked in LI-COR blocking buffer for 1 hour at room temperature and then probed with primary antibodies diluted in the same blocking buffer overnight at 4 °C. To detect the primary antibodies, membranes were incubated with IR-680 or IR-800 conjugated secondary antibodies (LI-COR) diluted in LI-COR blocking buffer at room temperature for 1 hour. Washes with 0.01% Tween-phosphate buffer were performed after primary and secondary antibody incubation steps. Signals from the membrane were recorded by scanning on a LI-COR Odyssey imager. Bands were quantified using Image Studio Lite (LI-COR Biosciences) or the ImageJ program.
To visualize the degradation of cyclin K, total cell lysates were subjected to SDS-PAGE and western blotting.

cyclin K [2] = assay: Immunofluorescence of nuclear cyclin K in MDA-MB-231 cells; format: cell-based, human
Procedure: Cells were fixed with 4% PFA in PBS at room temperature, permeabilized with 0.1% Triton X-100 in PBS, and blocked with 3% BSA in PBS at room temperature. Cells were incubated with primary antibodies overnight at 4 °C, followed by incubation with Alexa-Fluor conjugated secondary antibodies for 1 hour at room temperature. Cell nuclei were stained using DAPI. Images were acquired on a confocal microscope (Leica). ImageJ and QuPath were used for image analysis.
Figure S8. Immunofluorescence staining for cyclin K degradation. MDA-MB-231 cells were
treated for 2 h with either DMSO or the indicated compounds (0.5 µM) . Cells were fixed and
Nuclei were stained with DAPI (blue). […]

CDK12/cyclin K + DDB1 = target: T1, CDK12/cyclin K + DDB1 (Homo sapiens, UniProt Q16531+Q9NYV4, DEL396-705); assay: Microscale thermophoresis, ternary complex formation; format: binding; details: MST
T1 construct: The kinase domain of human CDK12 (Uniprot: Q9NYV4; a.a; 715–1050); GST (N, cleaved yes); made in house; host or cells: Spodoptera frugiperda SF9 insect cells (Bac-to-Bac); CDK12/cyclin K co-infected with S. cerevisiae CAK1
Procedure: Finally, the capacity of small molecules to induce a ternary complex between CDK12/cyclin K and DDB1 in vitro was assessed by microscale thermophoresis (MST). Labeled DDB1ΔBPB was combined with purified CDK12/cyclin K, and fluorescence intensity was monitored with increasing compound concentrations.
Cell pellets were harvested 48 hours post infection via centrifugation and lysed in buffer A (50 mM Tris–HCl (pH 8.0), 200 mM NaCl, 10 mM imidazole, 0.5 mM tris(2-carboxyethyl) phosphine (TCEP)) supplemented with EDTA-free Pierce™ protease inhibitor tablet (Thermo Fisher Scientific). […] The concentrated protein at 2 mg mL^−1 was flash-frozen in liquid nitrogen and stored at −80 °C.
Full-length S. cerevisiae CAK1 (Uniprot: P43568) with an N-terminal His6 tag was subcloned into pFastBac 1 vector. […] The eluted CDK12/cyclin K complex was concentrated to 2 mg mL^−1, flash-frozen in liquid nitrogen and stored at −80 °C.
A protocol to assess ternary binding of molecular glues with CDK12/cycK and DDB1 by MST was established using published procedures for PROTAC interaction with bromodomains and E3 ubiquitin ligases.[38] His8-DDB1-ΔBPB was labeled with the MO-L018 Monolith™ His-tag Labeling Kit RED-tris-NTA 2nd Generation (NanoTemper Technologies) following the instruction manual. 100 nM dye was mixed with 200 nM DDB1 in 50 mM HEPES pH 7.5, 150 mM NaCl, 5% glycerol, 0.05% Tween, and incubated at room temperature for 30 min. […] MST traces were recorded using standard parameters: 5 s MST power off, 30 s MST power on and 5 s MST power off. Measurements were taken at −1 to 0 s (cold region) and 9–10 s (hot region). Data were analyzed using a fitting function derived from the law of mass action:1 [drawing 6] where f(c) is the fluorescence signal (Fnorm) at a given ligand concentration (c), B is Fnorm of fully liganded DDB1 at high ligand concentrations, U is Fnorm of DDB1 alone at low ligand concentrations, Kd is the dissociation constant or binding affinity, cT is the final concentration of DDB1 in the assay (Fig. 3G). For normalization, the data were first transformed using eqn (2) where y is the fraction bound, followed by fitting to eqn (3) (Fig. 5B–E).2 [drawing 7] 3 [drawing 8]

MDA-MB-231 cells = assay: CellTiter-Glo viability assay, WT MDA-MB-231; format: cell-based; details: Homo sapiens; wild type MDA-MB-231; read-out: EC50 (WT) cell viability
Source text: MDA-MB-231 (human triple-negative breast cancer cells) and HEK293T (human embryonic kidney cells) were purchased from the American type culture collection (ATCC) and maintained in Dulbecco's modified Eagle's medium (DMEM) (Gibco) supplemented with 10% (v/v) heat-inactivated fetal bovine serum (FBS) (Gibco) and penicillin/streptomycin (100 U mL^−1 each). HiBiT-CCNK KI A549 cells, purchased from Promega, were maintained in F12 medium supplemented with 10% (v/v) heat-inactivated fetal bovine serum (FBS) (Gibco) and penicillin/streptomycin (100 U mL^−1 each). DDB1-knockdown MDA-MB-231 and DDB1-knockdown HEK293T cell lines were maintained in the same media formulation as their corresponding wild-type cell lines. All cell lines were cultured at 37 °C in an incubator with CO2 levels maintained at 5%.
(§1) Cell viability was measured by Cell Titer Glo assay kit (Promega, USA). EC50 was determined from the nonlinear regression and a four-parameter algorithm on the GraphPad Prism software.

[3] = test system: MDA-MB-231DDB1-shRNA cells; assay: CellTiter-Glo viability assay, MDA-MB-231 DDB1-shRNA; format: cell-based, human; details: Homo sapiens; MDA-MB-231 DDB1-shRNA; read-out: EC50 (DDB1 shRNA) cell viability
Source text: For stable genetic knock-down of DDB1 in cells, predesigned and validated TRC2-pLKO-puro shRNA plasmids for DDB1 (TRCN0000082855 and TRCN0000082856), and a non-targeting shRNA plasmid (SHC001) were obtained from Millipore Sigma. All plasmids were purified using the Qiagen Maxiprep kit (Qiagen). FuGENE HD 6 transfection reagent (Promega) was used for transfection of plasmids and lentiviral gene/shRNA constructs. Mission lentiviral packaging mix (Millipore Sigma) was used to package lentiviral plasmids into lentiviral particles in HEK293T cells, as per manufacturer's protocols. The resultant virus was concentrated using Vivaspin 20 centrifugal concentrators (Sartorius). MDA-MB-231 and HEK293T cells were transduced with lentivirus. Stable knocked down DDB1 (shDDB1-231 and shDDB1-HEK293T) cells were generated after selection with the antibiotic puromycin, and genetic knockdown was confirmed by western blotting.
as §1

[4] = labeled DDB1 + CDK12/cyclin K, run #1, read-out: Kd ternary complex formation, replicate #1
[5] = labeled DDB1 + CDK12/cyclin K, run #2, read-out: Kd ternary complex formation, replicate #2
[6] = labeled DDB1 + CDK12/cyclin K, run #3, read-out: Kd ternary complex formation, replicate #3
[7] = labeled DDB1ΔBPB 10 nM + CDK12/cyclin K 1000 nM, mean of replicates, read-out: Kd ternary complex formation (average)

T1 sequence (Q16531 with tags, fused parts or gaps DEL396-705): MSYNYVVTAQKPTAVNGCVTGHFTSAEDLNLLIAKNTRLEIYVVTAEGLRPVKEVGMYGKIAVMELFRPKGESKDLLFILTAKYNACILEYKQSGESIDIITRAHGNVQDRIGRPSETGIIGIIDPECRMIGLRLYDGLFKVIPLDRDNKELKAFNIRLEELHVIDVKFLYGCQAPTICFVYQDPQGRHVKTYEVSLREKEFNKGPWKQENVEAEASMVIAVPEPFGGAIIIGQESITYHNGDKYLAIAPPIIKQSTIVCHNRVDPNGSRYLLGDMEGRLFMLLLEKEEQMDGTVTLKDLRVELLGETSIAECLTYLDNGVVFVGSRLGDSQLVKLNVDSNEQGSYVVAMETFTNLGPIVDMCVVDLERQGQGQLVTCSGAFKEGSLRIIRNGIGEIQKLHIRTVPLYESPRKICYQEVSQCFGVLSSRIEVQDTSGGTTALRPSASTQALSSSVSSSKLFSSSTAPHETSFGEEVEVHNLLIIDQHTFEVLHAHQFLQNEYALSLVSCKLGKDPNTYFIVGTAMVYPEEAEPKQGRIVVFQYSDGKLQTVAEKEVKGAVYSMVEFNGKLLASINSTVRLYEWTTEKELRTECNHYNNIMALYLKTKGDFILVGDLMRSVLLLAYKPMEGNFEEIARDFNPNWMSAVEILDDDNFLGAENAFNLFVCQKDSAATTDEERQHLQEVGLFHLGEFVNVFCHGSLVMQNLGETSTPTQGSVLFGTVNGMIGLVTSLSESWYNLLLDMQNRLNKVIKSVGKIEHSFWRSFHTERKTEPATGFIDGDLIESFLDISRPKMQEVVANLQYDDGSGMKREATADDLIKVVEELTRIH
T1 sequence (Q9NYV4 715-1050, stated change not applied): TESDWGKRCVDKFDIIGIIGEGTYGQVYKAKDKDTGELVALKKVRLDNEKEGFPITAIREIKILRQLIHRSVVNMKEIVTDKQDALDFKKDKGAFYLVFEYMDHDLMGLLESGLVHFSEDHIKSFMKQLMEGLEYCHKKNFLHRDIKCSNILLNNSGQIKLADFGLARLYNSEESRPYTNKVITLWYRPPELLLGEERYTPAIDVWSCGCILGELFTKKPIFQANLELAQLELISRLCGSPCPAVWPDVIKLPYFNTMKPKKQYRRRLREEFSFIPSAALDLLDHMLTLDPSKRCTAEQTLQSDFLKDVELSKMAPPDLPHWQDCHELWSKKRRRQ
T1 sequence (O75909 11-267 partner limits assumed): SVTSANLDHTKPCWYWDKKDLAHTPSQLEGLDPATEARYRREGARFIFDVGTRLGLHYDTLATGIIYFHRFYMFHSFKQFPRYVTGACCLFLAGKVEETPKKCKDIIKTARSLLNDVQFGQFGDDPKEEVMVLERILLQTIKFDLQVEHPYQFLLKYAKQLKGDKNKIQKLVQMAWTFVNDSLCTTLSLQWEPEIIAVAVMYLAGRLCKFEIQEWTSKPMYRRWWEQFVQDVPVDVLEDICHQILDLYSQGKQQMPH

Compound | Kd (CDK12/cyclin K + DDB1; [4]) | Kd (CDK12/cyclin K + DDB1; [5]) | Kd (CDK12/cyclin K + DDB1; [6]) | Kd (CDK12/cyclin K + DDB1; [7]) | EC50 (MDA-MB-231 cells) | EC50 [3] | cyclin K degradation (immunoblot) (cyclin K [1]) | cyclin K nuclear intensity compared to control (cyclin K [2]; MDA-MB-231 cells, 0.5 µM, 2 h) | cyclin K nuclear intensity compared to control (cyclin K [2]) | ability to induce ternary complex (CDK12/cyclin K + DDB1; labeled DDB1ΔBPB + CDK12/cyclin K)
C#CCCC1(CCC(=O)N2CCN(c3nc(NCc4nc5cc(Cl)c(Cl)cc5[nH]4)c4ncn(-c5cnn(C)c5)c4n3)CC2)N=N1 [SR-4784-PAP, 3-(3-(But-3-yn-1-yl)-3H-diazirin-3-yl)-1-(4-(6-(((5,6-dichloro-1H-benzo[d]imidazol-2-yl)methyl)amino)-9-(1-methyl-1H-pyrazol-4-yl)-9H-purin-2-yl)piperazin-1-yl)propan-1-one] |  |  |  |  |  |  | degraded cyclin K in a proteasome-dependent manner |  |  | 
CN1CC=C(c2cn3c(-c4cnn(C(F)F)c4)cnc3c(NCc3nc4cc(Cl)c(Cl)cc4[nH]3)n2)CC1 [MR-1187, N-((5,6-Dichloro-1H-benzo[d]imidazol-2-yl)methyl)-3-(1-(difluoromethyl)-1H-pyrazol-4-yl)-6-(1-methyl-1,2,3,6-tetrahydropyridin-4-yl)imidazo[1,2-a]pyrazin-8-amine] | 137 ± 33.3 nM | 122 ± 54.6 nM | 152 ± 63.7 nM | 137 ± 15 nM |  |  |  | reduced |  | 
CCc1cnn2c(NCc3ccc[n+]([O-])c3)cc(N3CCCC[C@H]3CCO)nc12 [dinaciclib, reference compound] |  |  |  |  |  |  |  |  | not affected | lacked the ability to induce a ternary complex

Second part, led by results:

Kd (CDK12/cyclin K + DDB1; [4]) | Kd (CDK12/cyclin K + DDB1; [5]) | Kd (CDK12/cyclin K + DDB1; [6]) | Kd (CDK12/cyclin K + DDB1; [7]) | EC50 (MDA-MB-231 cells) | EC50 [3] | Compound | cyclin K degradation (immunoblot) (cyclin K [1]) | cyclin K nuclear intensity compared to control (cyclin K [2]; MDA-MB-231 cells, 0.5 µM, 2 h) | cyclin K nuclear intensity compared to control (cyclin K [2]) | ability to induce ternary complex (CDK12/cyclin K + DDB1; labeled DDB1ΔBPB + CDK12/cyclin K)
24.3 ± 9 nM | 31.3 ± 17.4 nM | 37.6 ± 23.3 nM | 31.1 ± 6.7 nM |  |  | Clc1cccc2nc(CNc3cc(N4CCNCC4)nn4c(-c5ccsc5)cnc34)[nH]c12 [MR-1110, N-((7-Chloro-1H-benzo[d]imidazol-2-yl)methyl)-6-(piperazin-1-yl)-3-(thiophen-3-yl)imidazo[1,2-b]pyridazin-8-amine] |  | reduced |  | 
409 ± 117 nM | 347 ± 98.3 nM | 528 ± 295 nM | 428 nM |  |  | Cn1cc(-c2cnn3c(NCc4nc5cc(Cl)c(Cl)cc5[nH]4)nc(N4CCOCC4)nc23)cn1 [MR-1014, N-((5,6-Dichloro-1H-benzo[d]imidazol-2-yl)methyl)-8-(1-methyl-1H-pyrazol-4-yl)-2-morpholinopyrazolo[1,5-a][1,3,5]triazin-4-amine] |  | reduced |  | 
 |  |  |  | 263 nM | 796 nM | Cn1cc(-n2cnc3c(NCc4nc5cc(Cl)c(Cl)cc5[nH]4)nc(N4CCNCC4)nc32)cn1 [SR-4784, N-((5,6-dichloro-1H-benzo[d]imidazol-2-yl)methyl)-9-(1-methyl-1H-pyrazol-4-yl)-2-(piperazin-1-yl)-9H-purin-6-amine] | induced cyclin K degradation |  |  | 

Reference: publication PMC11494886, “Discovery and design of molecular glue enhancers of CDK12–DDB1 interactions for targeted degradation of cyclin K” (RSC Chemical Biology, 2024)
